A compilation of properties of binary mixtures (doi:10.1016/j.molliq.2016.01.096)

Assay: xn = mol fraction of the nth substance listed
Conditions: 100 kPa

CCOS(=O)(=O)[O-].CC[n+]1ccn(C)c1 + CCOCCO
x2 = 0
Conditions | speed of sound [m/s]
298.15 K | 1680.8
318.15 K | 1632.4
328.15 K | 1608.9

CCOCCO + CCOS(=O)(=O)[O-].CC[n+]1ccn(C)c1
speed of sound [m/s]
Conditions | 298.15 K | 308.15 K | 318.15 K | 328.15 K
x1 = 0.0588 | – | – | 1620.5 | –
x1 = 0.1202 | 1654.9 | 1630.3 | – | 1581.6
x1 = 0.1846 | 1638.2 | 1613.2 | 1588.4 | 1563.9
x1 = 0.2326 | – | 1599.2 | – | –
x1 = 0.3548 | 1586.6 | 1560.3 | 1534.4 | 1509
x1 = 0.4516 | – | 1526.4 | 1499.8 | 1473.7
x1 = 0.5511 | 1516.8 | 1488.9 | 1461.4 | –
x1 = 0.6529 | 1476.3 | 1447.6 | 1419.1 | 1390.8
x1 = 0.741 | – | – | 1379.3 | –
x1 = 0.8273 | – | – | 1336.7 | 1305.7
x1 = 0.8658 | – | – | 1316.4 | –
x1 = 0.9094 | 1356.8 | 1324.7 | 1291.9 | 1259.3
x1 = 0.9512 | 1333.2 | 1300.2 | 1266.4 | 1232.9
x1 = 1 | 1302.8 | 1268.6 | 1233.3 | 1198.8
